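A five-concentration, 48-hour dose response in 96-well plates underlies each endpoint, interpolated linearly between surrounding concentrations. Abbreviation: GI50, concentration required for 50% inhibition of growth. TGI: concentration producing complete growth inhibition.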
Tests used:
Test in all cases: NCI tumour cell line growth inhibition, 48 h
HCT-15 colon = system: HCT-15 colon
HOP-62 NSCLC = system: HOP-62 NSCLC
MDA-MB-435 = system: MDA-MB-435
MOLT-4 leukemia = system: MOLT-4 leukemia
SF-295 CNS = system: SF-295 CNS
SK-MEL-28 melanoma = system: SK-MEL-28 melanoma
SW-620 colon = system: SW-620 colon
TK-10 renal = system: TK-10 renal
CCRF-CEM leukemia = system: CCRF-CEM leukemia
HCC-2998 colon = system: HCC-2998 colon

O=C(O)c1cc(=O)[nH]c(SCc2ccccc2)n1
TGI (HCT-15 colon): > 100 µM
TGI (HOP-62 NSCLC): > 100 µM
TGI (MDA-MB-435): > 100 µM
TGI (MOLT-4 leukemia): > 100 µM
TGI (SF-295 CNS): > 100 µM
TGI (SK-MEL-28 melanoma): > 100 µM
TGI (SW-620 colon): > 100 µM
TGI (TK-10 renal): > 100 µM

C=CCc1cc(-c2cc(CC=C)c(O)c(CNC)c2)cc(CNC)c1O
TGI (CCRF-CEM leukemia): 57 µM
TGI (HCC-2998 colon): 30 µM
TGI (HCT-15 colon): 30.2 µM
TGI (HOP-62 NSCLC): 33.4 µM
TGI (MOLT-4 leukemia): 31.1 µM
TGI (SF-295 CNS): 31 µM
TGI (SK-MEL-28 melanoma): 34 µM
TGI (SW-620 colon): 31.7 µM
TGI (TK-10 renal): 32.1 µM

CSc1nc(NC2OCC(OC(C)=O)C(OC(C)=O)C2OC(C)=O)c(N=C(C)C(C)=O)c(=O)[nH]1 (configuration not stated)
TGI (CCRF-CEM leukemia): > 100 µM
TGI (HCT-15 colon): > 100 µM
TGI (MOLT-4 leukemia): > 100 µM
TGI (SF-295 CNS): > 100 µM
TGI (SK-MEL-28 melanoma): > 100 µM
TGI (SW-620 colon): > 100 µM
TGI (TK-10 renal): > 100 µM

O=Cc1cc([N+](=O)[O-])no1
TGI (CCRF-CEM leukemia): > 100 µM
TGI (HCC-2998 colon): > 100 µM
TGI (HCT-15 colon): > 100 µM
TGI (HOP-62 NSCLC): > 100 µM
TGI (MDA-MB-435): 29.9 µM
TGI (MOLT-4 leukemia): 81.5 µM
TGI (SF-295 CNS): > 100 µM
TGI (SK-MEL-28 melanoma): > 100 µM
TGI (SW-620 colon): > 100 µM
TGI (TK-10 renal): > 100 µM

O=C(C[C@H](NC(=O)OCc1ccccc1)C(=O)NC1Cc2ccccc2OC1=O)OCc1ccccc1 (some centres not stated)
TGI (CCRF-CEM leukemia): > 100 µM
TGI (HCC-2998 colon): 66.5 µM
TGI (HCT-15 colon): > 100 µM
TGI (HOP-62 NSCLC): > 100 µM
TGI (MDA-MB-435): > 100 µM
TGI (MOLT-4 leukemia): > 100 µM
TGI (SK-MEL-28 melanoma): > 100 µM

Cc1nc2c(n1C)C(=O)c1nc(CBr)[nH]c(=O)c1C2=O
TGI (CCRF-CEM leukemia): > 100 µM
TGI (HCT-15 colon): > 100 µM
TGI (MOLT-4 leukemia): > 100 µM
TGI (SF-295 CNS): 5.27 µM
TGI (SK-MEL-28 melanoma): > 100 µM
TGI (SW-620 colon): > 100 µM
TGI (TK-10 renal): > 100 µM

CCCCCCCCCCCCCCCc1ccc(OCC(O)CO)cc1 (configuration not stated)
TGI (CCRF-CEM leukemia): > 100 µM
TGI (HCC-2998 colon): 49.9 µM
TGI (HCT-15 colon): > 100 µM
TGI (HOP-62 NSCLC): > 100 µM
TGI (MOLT-4 leukemia): > 100 µM
TGI (SF-295 CNS): > 100 µM
TGI (SK-MEL-28 melanoma): 62.2 µM
TGI (SW-620 colon): 49.1 µM
TGI (TK-10 renal): > 100 µM

CN(C)c1nc(N(C)C)nc(N(C)CN(C)c2ccc(Cl)cc2)n1
TGI (CCRF-CEM leukemia): > 100 µM
TGI (HCT-15 colon): > 100 µM
TGI (MOLT-4 leukemia): > 100 µM
TGI (SF-295 CNS): > 100 µM
TGI (SK-MEL-28 melanoma): > 100 µM
TGI (SW-620 colon): > 100 µM
TGI (TK-10 renal): > 100 µM

CS(=O)(=O)OC1CN2CCC1CC2 (configuration not stated)
TGI (CCRF-CEM leukemia): > 100 µM
TGI (HCT-15 colon): > 100 µM
TGI (HOP-62 NSCLC): > 100 µM
TGI (MDA-MB-435): > 100 µM
TGI (MOLT-4 leukemia): > 100 µM
TGI (SF-295 CNS): > 100 µM
TGI (SK-MEL-28 melanoma): > 100 µM
TGI (SW-620 colon): > 100 µM
TGI (TK-10 renal): > 100 µM

CCN(CC)CCCC(C)Nc1ccnc2cc3ccccc3cc12 (configuration not stated)
TGI (CCRF-CEM leukemia): > 100 µM
TGI (HCT-15 colon): 14.4 µM
TGI (HOP-62 NSCLC): > 100 µM
TGI (MDA-MB-435): 24.2 µM
TGI (MOLT-4 leukemia): > 100 µM
TGI (SF-295 CNS): 24.6 µM
TGI (SW-620 colon): > 100 µM
TGI (TK-10 renal): 78.6 µM

COc1ccc(C2CC(c3cccc(Nc4ccncc4)c3)=NN2c2ccc(Cl)cc2)cc1 (configuration not stated)
GI50 (CCRF-CEM leukemia): 2.5 µM
TGI (CCRF-CEM leukemia): 7.74 µM
GI50 (HCC-2998 colon): 1.74 µM
TGI (HCC-2998 colon): 3.22 µM
GI50 (HCT-15 colon): 1.88 µM
TGI (HCT-15 colon): 3.58 µM
GI50 (MDA-MB-435): 1.63 µM
TGI (MDA-MB-435): 3.05 µM
GI50 (MOLT-4 leukemia): 1.81 µM
TGI (MOLT-4 leukemia): 4.1 µM
GI50 (SF-295 CNS): 1.85 µM
TGI (SF-295 CNS): 3.3 µM
GI50 (SK-MEL-28 melanoma): 1.73 µM
TGI (SK-MEL-28 melanoma): 3.2 µM
GI50 (SW-620 colon): 1.61 µM
TGI (SW-620 colon): 3.19 µM
GI50 (TK-10 renal): 1.82 µM
TGI (TK-10 renal): 3.5 µM

CCN1C=C/C(=C\C=C/c2cc[n+](CC)c3ccccc23)c2ccccc21
TGI (CCRF-CEM leukemia): 30.9 µM
TGI (HCC-2998 colon): 19 µM
TGI (HCT-15 colon): 34.1 µM
TGI (HOP-62 NSCLC): 8.18 µM
TGI (MDA-MB-435): 14.2 µM
TGI (MOLT-4 leukemia): 19.7 µM
TGI (SF-295 CNS): 12.5 µM
TGI (SK-MEL-28 melanoma): 21.8 µM
TGI (SW-620 colon): 16.2 µM
TGI (TK-10 renal): 28.1 µM

CC(C)CCC[C@@H](C)[C@H]1CC[C@H]2[C@@H]3CC[C@H]4C[C@H](N)CC[C@]4(C)[C@H]3CC[C@]12C
TGI (CCRF-CEM leukemia): 8.5 µM
TGI (HCC-2998 colon): 64 µM
TGI (HCT-15 colon): 96.2 µM
TGI (HOP-62 NSCLC): 70.7 µM
TGI (MDA-MB-435): > 100 µM
TGI (MOLT-4 leukemia): > 100 µM
TGI (SF-295 CNS): 45.5 µM
TGI (SK-MEL-28 melanoma): 95 µM
TGI (SW-620 colon): > 100 µM
TGI (TK-10 renal): 37.2 µM

Nc1cc2c(nnn2C2OC(COCc3ccccc3)C(OCc3ccccc3)C2OCc2ccccc2)c(=O)[nH]1 (configuration not stated)
TGI (CCRF-CEM leukemia): > 100 µM
TGI (HCT-15 colon): > 100 µM
TGI (HOP-62 NSCLC): > 100 µM
TGI (MDA-MB-435): 40.4 µM
TGI (MOLT-4 leukemia): 38.9 µM
TGI (SF-295 CNS): > 100 µM
TGI (SK-MEL-28 melanoma): > 100 µM
TGI (SW-620 colon): > 100 µM
TGI (TK-10 renal): 52.1 µM

c1ccc(C2CC(c3cccc(Nc4ccncc4)c3)=NN2c2ccccc2)cc1 (configuration not stated)
GI50 (CCRF-CEM leukemia): 2.09 µM
TGI (CCRF-CEM leukemia): 5.68 µM
GI50 (HCC-2998 colon): 1.58 µM
TGI (HCC-2998 colon): 2.96 µM
GI50 (HCT-15 colon): 1.59 µM
TGI (HCT-15 colon): 3.18 µM
GI50 (MDA-MB-435): 1.69 µM
TGI (MDA-MB-435): 3.2 µM
GI50 (MOLT-4 leukemia): 2.02 µM
TGI (MOLT-4 leukemia): 4.83 µM
GI50 (SF-295 CNS): 1.72 µM
TGI (SF-295 CNS): 3.13 µM
GI50 (SK-MEL-28 melanoma): 1.76 µM
TGI (SK-MEL-28 melanoma): 3.19 µM
GI50 (SW-620 colon): 1.65 µM
TGI (SW-620 colon): 3.27 µM
GI50 (TK-10 renal): 1.86 µM
TGI (TK-10 renal): 3.6 µM

CC(C)(C)OC(=O)NCC(=O)NC1c2ccsc2/C(=N/O)[C@H]1O (some centres not stated)
TGI (CCRF-CEM leukemia): > 100 µM
TGI (HCC-2998 colon): > 100 µM
TGI (HCT-15 colon): > 100 µM
TGI (HOP-62 NSCLC): > 100 µM
TGI (MDA-MB-435): > 100 µM
TGI (MOLT-4 leukemia): > 100 µM
TGI (SF-295 CNS): > 100 µM
TGI (SK-MEL-28 melanoma): > 100 µM
TGI (SW-620 colon): > 100 µM
TGI (TK-10 renal): > 100 µM

CCCCCCNC(=O)c1cc(CCc2cc(O)ccc2O)ccc1O
TGI (CCRF-CEM leukemia): > 100 µM
TGI (HCC-2998 colon): 9.68 µM
TGI (HCT-15 colon): 12.8 µM
TGI (HOP-62 NSCLC): 25 µM
TGI (MDA-MB-435): 19.6 µM
TGI (MOLT-4 leukemia): > 24.5 µM
TGI (SF-295 CNS): 31.3 µM
TGI (SK-MEL-28 melanoma): 7.37 µM
TGI (SW-620 colon): > 75.9 µM
TGI (TK-10 renal): 9.15 µM

COc1ccc2c(c1)CCN=C2Cc1cc(OC)c(OC)cc1CCCl
TGI (CCRF-CEM leukemia): > 100 µM
TGI (HCC-2998 colon): > 100 µM
TGI (HOP-62 NSCLC): 49.6 µM
TGI (MDA-MB-435): > 100 µM
TGI (MOLT-4 leukemia): > 100 µM
TGI (SF-295 CNS): > 100 µM
TGI (SK-MEL-28 melanoma): > 100 µM
TGI (SW-620 colon): > 100 µM
TGI (TK-10 renal): > 100 µM

Cc1ccc(NP(=O)(Oc2ccccc2)N(CCCl)CCCl)cc1 (configuration not stated)
TGI (HCC-2998 colon): > 100 µM
TGI (HCT-15 colon): > 100 µM
TGI (HOP-62 NSCLC): > 100 µM
TGI (MOLT-4 leukemia): > 100 µM
TGI (SF-295 CNS): > 100 µM
TGI (SK-MEL-28 melanoma): > 100 µM
TGI (SW-620 colon): > 100 µM
TGI (TK-10 renal): > 100 µM

CN(c1cc2ncc(=O)[nH]c2cc1NC(N)=NCc1ccc(Cl)cc1)C1CCCCC1
GI50 (CCRF-CEM leukemia): 6.33 µM
TGI (CCRF-CEM leukemia): 15.6 µM
GI50 (HCC-2998 colon): 1.73 µM
TGI (HCC-2998 colon): 5.29 µM
GI50 (HCT-15 colon): 8.27 µM
TGI (HCT-15 colon): 15.4 µM
GI50 (HOP-62 NSCLC): 8.84 µM
TGI (HOP-62 NSCLC): 19.6 µM
GI50 (MDA-MB-435): 6.34 µM
TGI (MDA-MB-435): 12.8 µM
GI50 (MOLT-4 leukemia): 6.59 µM
TGI (MOLT-4 leukemia): 14.6 µM
GI50 (SF-295 CNS): 7.42 µM
TGI (SF-295 CNS): 14.9 µM
GI50 (SK-MEL-28 melanoma): 6.71 µM
TGI (SK-MEL-28 melanoma): 13.7 µM
GI50 (SW-620 colon): 4.33 µM
TGI (SW-620 colon): 11.2 µM
GI50 (TK-10 renal): 7.44 µM
TGI (TK-10 renal): 15.2 µM

CC(=O)Oc1c(C)c2c(O)c3c1C1=C(OCOC1=C(C)C3=O)/C(C)=C\C(C)(O)C(O)C(C)C(O)C1C(=O)OC(C(C)C1O)C(C)(O)/C=C/C=C(C)C(=O)N2 (configuration not stated)
TGI (CCRF-CEM leukemia): 61.4 µM
TGI (HCC-2998 colon): > 100 µM
TGI (HCT-15 colon): > 100 µM
TGI (HOP-62 NSCLC): > 100 µM
TGI (MDA-MB-435): > 100 µM
TGI (MOLT-4 leukemia): > 100 µM
TGI (SF-295 CNS): > 100 µM
TGI (SK-MEL-28 melanoma): > 100 µM
TGI (SW-620 colon): > 100 µM
